Biological target: Catenin beta-1/Transcription factor 7-like 2 (Homo sapiens, UniProt P35222+Q9NQB0)
Assay: Inhibition of human TCF4/ flag epitope-tagged beta-catenin (unknown origin) interaction transfected in human HCT116 cells after 24 hrs by beta-galactosidase/luciferase reporter gene assay

Catenin beta-1/Transcription factor 7-like 2, sequence (P35222 whole entry): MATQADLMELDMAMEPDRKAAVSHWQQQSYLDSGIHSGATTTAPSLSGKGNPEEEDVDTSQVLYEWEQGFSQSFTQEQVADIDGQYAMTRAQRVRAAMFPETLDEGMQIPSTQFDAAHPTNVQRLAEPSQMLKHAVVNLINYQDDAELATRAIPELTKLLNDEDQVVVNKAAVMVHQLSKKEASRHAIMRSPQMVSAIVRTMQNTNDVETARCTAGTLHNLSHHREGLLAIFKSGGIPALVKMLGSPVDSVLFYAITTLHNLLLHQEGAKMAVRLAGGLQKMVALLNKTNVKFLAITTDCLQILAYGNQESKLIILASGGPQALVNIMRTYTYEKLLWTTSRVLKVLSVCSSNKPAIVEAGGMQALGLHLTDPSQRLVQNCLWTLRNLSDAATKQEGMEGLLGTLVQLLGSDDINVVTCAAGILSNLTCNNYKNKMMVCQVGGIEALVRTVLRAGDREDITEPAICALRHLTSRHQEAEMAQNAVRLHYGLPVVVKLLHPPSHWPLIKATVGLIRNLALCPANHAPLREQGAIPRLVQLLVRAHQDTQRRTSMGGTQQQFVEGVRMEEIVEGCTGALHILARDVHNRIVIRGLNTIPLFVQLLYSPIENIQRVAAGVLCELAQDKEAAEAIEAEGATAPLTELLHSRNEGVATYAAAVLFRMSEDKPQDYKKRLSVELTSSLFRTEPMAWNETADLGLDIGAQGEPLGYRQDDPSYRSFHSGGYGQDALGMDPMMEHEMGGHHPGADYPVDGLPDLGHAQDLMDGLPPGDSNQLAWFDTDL
Catenin beta-1/Transcription factor 7-like 2, sequence (Q9NQB0 whole entry): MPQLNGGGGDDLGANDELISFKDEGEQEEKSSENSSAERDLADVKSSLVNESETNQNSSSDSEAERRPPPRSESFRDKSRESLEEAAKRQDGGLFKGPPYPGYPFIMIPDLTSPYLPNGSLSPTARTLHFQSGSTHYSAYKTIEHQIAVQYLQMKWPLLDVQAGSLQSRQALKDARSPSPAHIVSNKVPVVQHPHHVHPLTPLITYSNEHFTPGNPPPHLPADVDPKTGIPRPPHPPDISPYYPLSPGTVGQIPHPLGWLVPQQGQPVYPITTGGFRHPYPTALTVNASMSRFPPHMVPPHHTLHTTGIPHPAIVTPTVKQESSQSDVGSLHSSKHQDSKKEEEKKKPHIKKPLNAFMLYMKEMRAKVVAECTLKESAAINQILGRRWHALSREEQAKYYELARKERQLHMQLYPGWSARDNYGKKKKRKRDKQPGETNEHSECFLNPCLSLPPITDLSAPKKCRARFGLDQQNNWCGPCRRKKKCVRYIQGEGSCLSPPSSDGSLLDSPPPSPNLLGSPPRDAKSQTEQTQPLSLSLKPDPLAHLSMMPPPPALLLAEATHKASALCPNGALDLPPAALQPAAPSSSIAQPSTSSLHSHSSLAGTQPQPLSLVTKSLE

Cn1nc(-c2ccc(Cl)cc2)nc2c(=O)n(C)c(=O)nc1-2 [3-(4-Chloro-phenyl)-1,6-dimethyl-1H-pyrimido[5,4-e][1,2,4]triazine-5,7-dione]
IC50: 0.3 µM

From BindingDB's records for doi:10.1016/j.bmcl.2013.08.111 (University of Michigan, 2013)
